Measured values taken from ChEMBL document CHEMBL6127100, “Plant based steroidal and triterpenoid sapogenins: Chemistry on diosgenin and biological aspects” (Eur J Med Chem, 2024).

Assays:
Assay type in all cases: functional, cell-based
[1] = tested on: HepG2; experiment: Cytotoxicity against human HepG2 cells assessed as reduction in cell viability incubated for 24 hrs by MTT assay; settings: HepG2, 24 h
[2] = tested on: HeLa; experiment: Antiproliferative activity against human HeLa cells assessed as reduction in cell growth after 48 hrs by MTT assay
[3] = tested on: Ca-Ski; experiment: Antiproliferative activity against human Ca-Ski cells assessed as reduction in cell growth after 48 hrs by MTT assay
[4] = tested on: MDA-MB-231; experiment: Cytotoxicity against human MDA-MB-231 cells assessed as reduction in cell growth incubated for 48 hrs by MTT assay; settings: MDA-MB-231, 48 h
[5] = tested on: HeLa; experiment: Cytotoxicity against human HeLa cells assessed as reduction in cell growth incubated for 48 hrs by MTT assay
[6] = tested on: KB; experiment: Cytotoxicity against human KB cells assessed as reduction in cell growth incubated for 3 days by micro-titer plate reader analysis; settings: 72 h
[7] = tested on: HuCC-A1; experiment: Cytotoxicity against human HuCC-A1 cells assessed as reduction in cell growth incubated for 3 days by micro-titer plate reader analysis; settings: HuCC-A1, 72 h
[8] = tested on: SH-SY5Y; experiment: Cytotoxicity against human SH-SY5Y cells assessed as reduction in cell viability incubated for 24 hrs by MTT assay
[9] = tested on: CCRF-CEM; experiment: Cytotoxicity against human CCRF-CEM cells
[10] = tested on: U-937; experiment: Cytotoxicity against human U-937 cells
[11] = tested on: MDA-MB-231; experiment: Cytotoxicity against human MDA-MB-231 cells
[12] = tested on: HeLa; experiment: Antiproliferative activity against human HeLa cells assessed as reduction in cell viability incubated for 24 hrs by MTT assay
[13] = tested on: HepG2; experiment: Antiproliferative activity against human HepG2 cells assessed as reduction in cell viability incubated for 24 hrs ny MTT assay; settings: HepG2, 24 h
[14] = tested on: DU-145; experiment: Cytotoxicity against human DU-145 cells
[15] = tested on: T98G; experiment: Antiproliferative activity against human T98G cells assessed as inhibition of cell growth incubated for 72 hrs by celltiter-glo assay
[16] = tested on: BT-474; experiment: Cytotoxicity against human BT-474 cells
[17] = tested on: Ca-Ski; experiment: Cytotoxicity against human Ca-Ski cells
[18] = tested on: HeLa; experiment: Cytotoxicity against human HeLa cells

C[C@@H]1CC[C@@]2(OC1)O[C@H]1C[C@H]3[C@@H]4CC=C5C[C@@H](O[C@@H]6O[C@H](CO)[C@@H](O[C@@H]7O[C@@H](C)[C@H](O[C@@H]8O[C@@H](C)[C@H](O[C@@H]9O[C@@H](C)[C@H](O[C@@H]%10O[C@@H](C)[C@H](O)[C@@H](O)[C@H]%10O)[C@@H](O)[C@H]9O)[C@@H](O)[C@H]8O)[C@@H](O)[C@H]7O)[C@H](O)[C@H]6O[C@@H]6O[C@@H](C)[C@H](O)[C@@H](O)[C@H]6O)CC[C@]5(C)[C@H]4CC[C@]3(C)[C@H]1[C@@H]2C was tested, and the IC50 [1] was 13.4 µM.
Work on C[C@@H]1CC[C@@]2(OC1)O[C@H]1C[C@H]3[C@@H]4CC=C5C[C@@H](O[C@@H]6O[C@H](CO)[C@@H](O[C@@H]7O[C@@H](C)[C@H](O)[C@@H](O)[C@H]7O)[C@H](O)[C@H]6O)CC[C@]5(C)[C@H]4CC[C@]3(C)[C@H]1[C@@H]2C yielded an IC50 [2] of 45.1 µM and an IC50 [3] of 80 µM.
C[C@@H]1CC[C@@]2(OC1)O[C@H]1C[C@H]3[C@@H]4CC=C5C[C@@H](O[C@@H]6O[C@H](CO)[C@@H](O[C@@H]7O[C@H](CO)[C@@H](O[C@@H]8O[C@@H](C)[C@H](O)[C@@H](O)[C@H]8O)[C@H](O)[C@H]7O)[C@H](O)[C@H]6O[C@@H]6O[C@@H](C)[C@H](O)[C@@H](O)[C@H]6O)CC[C@]5(C)[C@H]4CC[C@]3(C)[C@H]1[C@@H]2C showed an IC50 [4] of 0.9 µM, an IC50 [5] of 0.7 µM and an IC50 [6] of 0.9 µM. It also gave an IC50 [7] of 2.6 µM.
Work on CC(C)C[C@H](NC(=O)OC(C)(C)C)C(=O)O[C@H]1CC[C@@]2(C)C(=CC[C@H]3[C@@H]4C[C@@H]5O[C@]6(CC[C@@H](C)CO6)[C@@H](C)[C@@H]5[C@@]4(C)CC[C@@H]32)C1 yielded an IC50 [8] of 9.5 µM.
C[C@@H]1CC[C@@]2(OC1)O[C@H]1C[C@H]3[C@@H]4CC=C5C[C@@H](O[C@@H]6O[C@H](CO)[C@@H](O[C@@H]7O[C@@H](CO)[C@H](O)[C@H]7O)[C@H](O)[C@H]6O[C@@H]6O[C@@H](C)[C@H](O)[C@@H](O)[C@H]6O)CC[C@]5(C)[C@H]4CC[C@]3(C)[C@H]1[C@@H]2C showed an IC50 [1] of 12.2 µM.
With CC[C@H](C)[C@H](NC(=O)OC(C)(C)C)C(=O)O[C@H]1CC[C@@]2(C)C(=CC[C@H]3[C@@H]4C[C@@H]5O[C@]6(CC[C@@H](C)CO6)[C@@H](C)[C@@H]5[C@@]4(C)CC[C@@H]32)C1 the IC50 [8] was 18.5 µM.
For COc1cc(-c2cn(C3C[C@H]4[C@@H]5C[C@@H]6O[C@]7(CC[C@@H](C)CO7)[C@@H](C)[C@@H]6[C@@]5(C)CC[C@@H]4[C@@]4(C)CC[C@H](O)CC34O)nn2)cc(OC)c1OC (some centres undefined), the IC50 [9] was 6.26 µM, the IC50 [10] was 5.45 µM and the IC50 [11] was 16.1 µM.
In the case of C[C@H](CC[C@H]1O[C@H]2C[C@H]3[C@@H]4CC=C5C[C@@H](O[Si](C)(C)C(C)(C)C)CC[C@]5(C)[C@H]4CC[C@]3(C)[C@H]2[C@@H]1C)COC1=C(Cl)C(=O)c2ccccc2C1=O, the IC50 [12] is reported as 17.4 µM and the IC50 [13] is reported as 5.81 µM.
For C[C@@H]1CC[C@@]2(OC1)O[C@H]1C[C@H]3[C@@H]4CC=C5C[C@@H](O[C@@H]6O[C@H](CO)[C@@H](O[C@@H]7O[C@@H](C)[C@H](O[C@@H]8O[C@@H](C)[C@H](O)[C@@H](O)[C@H]8O)[C@@H](O)[C@H]7O)[C@H](O)[C@H]6O[C@@H]6O[C@@H](C)[C@H](O)[C@@H](O)[C@H]6O)CC[C@]5(C)[C@H]4CC[C@]3(C)[C@H]1[C@@H]2C [PENNOGENIN RAHAMNOSYL CHACOTRIOSIDE], the IC50 [4] was 3.1 µM, the IC50 [1] was 6.33 µM and the IC50 [5] was 3 µM. It also gave an IC50 [6] of 6.2 µM and an IC50 [7] of 3 µM.
CCCC(N)C(=O)O[C@H]1CC[C@@]2(C)C(=CC[C@H]3[C@@H]4C[C@@H]5O[C@]6(CC[C@@H](C)CO6)[C@@H](C)[C@@H]5[C@@]4(C)CC[C@@H]32)C1 (some centres undefined) gave an IC50 [8] of 6.9 µM.
C[C@@H]1CC[C@@]2(OC1)O[C@H]1C[C@H]3[C@@H]4CC=C5C[C@@H](O[C@@H]6O[C@H](CO)[C@@H](O[C@@H]7O[C@@H](C)[C@H](O)[C@@H](O)[C@H]7O)[C@H](O)[C@H]6O[C@@H]6O[C@@H](C)[C@H](O)[C@@H](O)[C@H]6O)CC[C@]5(C)[C@H]4CC[C@]3(C)[C@H]1[C@@H]2C [DIOSCIN] showed an IC50 [4] of 1.7 µM, an IC50 [2] of 2 µM and an IC50 [1] of 3.09 µM. The IC50 [5] was 3.6 µM, the IC50 [6] was 6.2 µM and the IC50 [3] was 2 µM. It also gave an IC50 [7] of 8.4 µM.
For C[C@@H]1CC[C@@]2(OC1)O[C@H]1C[C@H]3[C@@H]4CC=C5C[C@@H](O)CC[C@]5(C)[C@H]4CC[C@]3(C)[C@H]1[C@@H]2C [DISOGENIN], the IC50 [2] was 31.4 µM and the IC50 [3] was 80 µM.
C[C@H](CC[C@H]1O[C@H]2C[C@H]3[C@@H]4CC=C5C[C@@H](O)CC[C@]5(C)[C@H]4CC[C@]3(C)[C@H]2[C@@H]1C)COC1=C(Cl)C(=O)c2ccccc2C1=O was tested, and the IC50 [12] was 14.1 µM and the IC50 [13] was 1.24 µM.
C[C@@H]1CC[C@@]2(OC1)O[C@H]1C[C@H]3[C@@H]4CC(n5cc(-c6ccc(F)cc6)nn5)C5(O)C[C@@H](O)CC[C@]5(C)[C@H]4CC[C@]3(C)[C@H]1[C@@H]2C (some centres undefined) was tested, and the IC50 [9] was 5.44 µM, the IC50 [10] was 7.07 µM and the IC50 [11] was 7.08 µM. For the same molecule, the IC50 [14] was 10.1 µM, the IC50 [15] was 8.87 µM and the IC50 [16] was 3.85 µM.
C[C@@H]1CC[C@@]2(OC1)O[C@H]1C[C@H]3[C@@H]4CC=C5C[C@@H](OC(=O)[C@@H](N)Cc6ccccc6)CC[C@]5(C)[C@H]4CC[C@]3(C)[C@H]1[C@@H]2C gave an IC50 [8] of 11.2 µM.
For C[C@H](CC[C@H]1O[C@H]2C[C@H]3[C@@H]4CC=C5C[C@@H](O[Si](C)(C)C(C)(C)C)CC[C@]5(C)[C@H]4CC[C@]3(C)[C@H]2[C@@H]1C)COC1=C(Cl)C(=O)c2ncccc2C1=O, the IC50 [13] was 19.7 µM.
Work on C[C@@H]1CC[C@@]2(OC1)O[C@H]1C[C@H]3[C@@H]4C/C(=N\O)C5=C/C(=N/O)CC[C@]5(C)[C@H]4CC[C@]3(C)[C@H]1[C@@H]2C yielded an IC50 [17] of 22 µM and an IC50 [18] of 19 µM.
C[C@@H]1CC[C@@]2(OC1)O[C@H]1C[C@H]3[C@@H]4CC=C5C[C@@H](OC(=O)[C@@H]6CCCN6)CC[C@]5(C)[C@H]4CC[C@]3(C)[C@H]1[C@@H]2C showed an IC50 [8] of 7.2 µM.
In the case of C[C@@H]1CC[C@@]2(OC1)O[C@H]1C[C@H]3[C@@H]4CC=C5C[C@@H](O[C@@H]6O[C@H](CO)[C@@H](O)[C@H](O)[C@H]6O[C@@H]6O[C@@H](C)[C@H](O)[C@@H](O)[C@H]6O)CC[C@]5(C)[C@H]4CC[C@]3(C)[C@H]1[C@@H]2C [OPHIOPOGONIN C], the IC50 [4] is reported as 3.5 µM, the IC50 [1] is reported as 2.92 µM and the IC50 [5] is reported as 3.7 µM. The IC50 [6] was 4.2 µM and the IC50 [7] was 5.8 µM.
In the case of C[C@@H]1CC[C@@]2(OC1)O[C@H]1C[C@H]3[C@@H]4CC=C5C[C@@H](OC(=O)CN(C)C(=O)OC(C)(C)C)CC[C@]5(C)[C@H]4CC[C@]3(C)[C@H]1[C@@H]2C, the IC50 [8] is reported as 15.2 µM.
With C[C@@H]1CC[C@@]2(OC1)O[C@H]1C[C@H]3[C@@H]4CC=C5C[C@@H](O[C@@H]6O[C@H](CO)[C@@H](O)[C@H](O)[C@H]6O)CC[C@]5(C)[C@H]4CC[C@]3(C)[C@H]1[C@@H]2C [DISOGLUSIDE] the IC50 [2] was 39.1 µM and the IC50 [3] was 41 µM.
Molecule CC(=O)O[C@@H]1C=C2CC[C@H]3[C@@H]4C[C@@H]5O[C@@]6(OC[C@H](C)CC6/C(C)=N\O)[C@@H](C)[C@@H]5[C@@]4(C)CC[C@@H]3[C@@]2(C)CC1 (some centres undefined) has an IC50 [17] of 5.4 µM and an IC50 [18] of 5.6 µM.
For COc1cccc(COc2ccc(-c3cn(C4C[C@H]5[C@@H]6C[C@@H]7O[C@]8(CC[C@@H](C)CO8)[C@@H](C)[C@@H]7[C@@]6(C)CC[C@@H]5[C@@]5(C)CC[C@H](O)CC45O)nn3)cc2)c1 (some centres undefined), the IC50 [9] was 5.73 µM, the IC50 [14] was 10.5 µM and the IC50 [15] was 7.51 µM.
CC(=O)O[C@H]1CC[C@@]2(C)C(=CC[C@H]3[C@@H]4C[C@@H]5O[C@H](CC[C@@H](C)COC6=C(Cl)C(=O)c7ccccc7C6=O)[C@@H](C)[C@@H]5[C@@]4(C)CC[C@@H]32)C1 showed an IC50 [13] of 13.5 µM.
Molecule C[C@@H]1CC[C@@]2(OC1)O[C@H]1C[C@H]3[C@@H]4CC=C5C[C@@H](O[C@@H]6O[C@H](CO)[C@@H](O[C@@H]7O[C@H](CO)[C@@H](O)[C@H](O)[C@H]7O)[C@H](O)[C@H]6O[C@@H]6O[C@@H](C)[C@H](O)[C@@H](O)[C@H]6O)CC[C@]5(C)[C@H]4CC[C@]3(C)[C@H]1[C@@H]2C [DELTONIN] has an IC50 [4] of 1.1 µM, an IC50 [5] of 0.9 µM and an IC50 [6] of 1.2 µM. The IC50 [7] was 3.4 µM.
Cc1ccc2c(c1)C(=O)C(Cl)=C(OC[C@H](C)CC[C@H]1O[C@H]3C[C@H]4[C@@H]5CC=C6C[C@@H](O[Si](C)(C)C(C)(C)C)CC[C@]6(C)[C@H]5CC[C@]4(C)[C@H]3[C@@H]1C)C2=O showed an IC50 [12] of 17.9 µM and an IC50 [13] of 10.9 µM.
C[C@@H]1CC[C@@]2(OC1)O[C@H]1C[C@H]3[C@@H]4CC(n5cc(-c6ccccn6)nn5)C5(O)C[C@@H](O)CC[C@]5(C)[C@H]4CC[C@]3(C)[C@H]1[C@@H]2C (some centres undefined) showed an IC50 [10] of 15.2 µM.
